The results in this text go back to ChEMBL document CHEMBL6078618, “Exploring quinoxaline derivatives: An overview of a new approach to combat antimicrobial resistance” (Eur J Med Chem, 2024).

For experiment [1], the system named is Candida albicans. In words: Antifungal activity against Candida albicans. In kind it is functional.
The subject of experiment [2] is Nakaseomyces glabratus. The experiment can be described thus: Antifungal activity against Candida glabrata. Type of experiment: functional.
In experiment [3] the test system is Candida tropicalis. In words: Antifungal activity against Candida tropicalis. Type of experiment: functional.
Experiment [4] has as its system Pichia kudriavzevii. The experiment can be described thus: Antifungal activity against Candida krusei. In kind it is functional.
Experiment [5] has as its system Rhizoctonia solani. The experiment can be described thus: Antifungal activity against Rhizoctonia solani. Type of experiment: functional, organism-based.
The test system of experiment [6] is Escherichia coli. In words: Antimicrobial activity against Escherichia coli NCIM 2065 assessed as zone of inhibition incubated for 24 hrs by agar diffusion method. Type of experiment: functional.
For experiment [7], the system named is Escherichia coli. The experiment can be described thus: Antibacterial activity against Escherichia coli E38 assessed as reduction in bacterial growth by measuring minimum bactericidal concentration incubated for 16 to 20 hrs by serial dilution method. Type of experiment: functional. The settings on record: time 16-20 hrs.
The test system of experiment [8] is Staphylococcus aureus. In words: Antibacterial activity against Staphylococcus aureus ATCC 25923 assessed as reduction in bacterial growth incubated for 24 hrs by serial dilution method. Type of experiment: functional.
In experiment [9] the test system is Escherichia coli. In words: Antibacterial activity against Escherichia coli ATCC 25922 assessed as reduction in bacterial growth by broth microdilution method. In kind it is functional. A general note: Dilution methods test growth across graded concentrations, often in twofold steps.
Experiment [10] concerns Bacillus pumilus. In words: Antimicrobial activity against Bacillus pumilus. Type of experiment: functional.
In experiment [11] the test system is Micrococcus luteus. The experiment can be described thus: Antibacterial activity against Micrococcus luteus assessed as reduction in microbial growth. Type of experiment: functional.
Experiment [12] has as its system Pseudomonas aeruginosa. The experiment can be described thus: Antibacterial activity against Pseudomonas aeruginosa ATCC 27853 assessed as inhibition of bacterial growth. Type of experiment: functional.
The subject of experiment [13] is Candida albicans. The experiment can be described thus: Antifungal activity against Candida albicans assessed as reduction in microbial growth. In kind it is functional.
For experiment [14], the system named is Fusarium oxysporum. The experiment can be described thus: Antifungal activity against Fusarium oxysporum. Type of experiment: functional.
In experiment [15] the test system is Xanthomonas axonopodis. The experiment can be described thus: Antimicrobial activity against Xanthomonas axonopodis. Type of experiment: functional, organism-based.
Experiment [16] concerns Staphylococcus aureus. In words: Antibacterial activity against Staphylococcus aureus. In kind it is functional.
Experiment [17] relates to MCF7. In words: Anticancer activity against human MCF7 cells assessed as reduction in cell growth. In kind it is functional, cell-based.

pEC50, pIC50: −log10 of the molar value. ≈ marks a conversion by molar mass, not a printed value.

What is called MIC90 is the lowest concentration that inhibits either 90% of growth or 90% of the strains tested, depending on the study. A low value points to higher susceptibility. For the compound `OC(Cn1cncn1)(Cn1cncn1)c1ccc(F)cc1F` [FLUCONAZOLE], the MIC90 in [1] was 0.5 µg/mL (≈ 1.63 µM); in experiment [2] it was 2 µg/mL (≈ 6.53 µM); in [3], 4 µg/mL (≈ 13.1 µM); in experiment [4], 16 µg/mL (≈ 52.2 µM).

Broadly, the EC50 is the concentration at which the effect is half-maximal. Lower therefore signals higher potency in that assay. In the case of `N#Cc1ccc(COC(=O)c2ccc(Oc3cnc4cc(Cl)ccc4n3)cc2)cc1`, in experiment [5], the response was half-maximal at 12 µg/mL (≈ 28.9 µM) (EC50).

A word on the MBC: it is the smallest concentration meeting the test's criterion for killing. For the compound `Cc1cc(C)cc(Sc2nc3ccccc3nc2Cl)c1`, in experiment [6], the “inhibition zone (IZ)” value was 11 mm. Also, the MBC in experiment [7] came out at 2.5 µg/mL (≈ 8.31 µM).

A word on the MIC: it is the least concentration at which growth counts as inhibited. With `C/C(=N/Nc1nc2nc3cc(S(=O)(=O)N4CCOCC4)ccc3nc2s1)c1ccc(Br)cc1`, in experiment [8], the MIC worked out at 1.92 µg/mL (≈ 3.51 µM).

Consider `Nc1ccc(Sc2nc3ccccc3nc2Sc2ccc(N)cc2)cc1`, for which the MIC in [9] and in [10] was 2.5 µg/mL (≈ 6.64 µM) each time.

For `Cc1nnc2n1Nc1nc3ccc(S(=O)(=O)N4CCOCC4)cc3nc1S2`, the MIC in experiment [8] was found to be 1.92 µg/mL (≈ 4.74 µM).

As to `CCNc1nc2ccccc2nc1C(=O)c1cnc(-c2ccccc2)o1`, the MIC worked out at 62.5 µg/mL in experiment [11] and 31.2 µg/mL (≈ 90.7 µM) in [12].

In turn, `N#Cc1ccc(COC(=O)c2ccc(Oc3cnc4ccccc4n3)cc2)cc1` showed an EC50 in experiment [5] of 8.54 µg/mL (≈ 22.4 µM).

Regarding `CCCNc1nc2ccccc2nc1C(=O)c1cnc(-c2ccccc2)o1`, the values for the MIC in [11] and in [12] were 62.5 µg/mL and 31.2 µg/mL (≈ 87.2 µM), respectively.

For the compound `NNC1=NNc2nc3ccc(S(=O)(=O)N4CCOCC4)cc3nc2S1`, the MIC came to 3.9 µg/mL in experiment [13], 15.6 µg/mL (≈ 40.9 µM) in experiment [14] and 1.92 µg/mL (≈ 5.03 µM) in experiment [8].

With `O=[N+]([O-])c1ccc(Sc2nc3ccccc3nc2Sc2ccc([N+](=O)[O-])cc2)cc1`, in [9], the MIC was found to be 2.5 µg/mL (≈ 5.73 µM).

The pEC50 is the negative decadic logarithm of the EC50, by convention in mol/L. Read a low pEC50 as a large EC50. In the case of `O=C(/C=C/c1ccccn1)c1ccc(Oc2cnc3ccccc3n2)cc1`, in experiment [15], the pEC50 is 4.21.

As to `N#Cc1ccc(/C=C/c2nc3ccccc3nc2Nc2ccc(C(=O)O)cc2)cc1`, in experiment [16], the MIC is 13.3 µM (≈ 5.22 µg/mL).

Usually pIC50 stands for the IC50 on a negative log10 scale, so that one unit is a factor of ten. Regarding `COc1ccc(OC)c(/C=C/c2nc3ccccc3nc2Nc2ccc(C(=O)O)cc2)c1`, the pIC50 in [17] was 5.00.

In the case of `CCc1nc2ccc(-c3nnc(SCC(=O)c4ccc([N+](=O)[O-])cc4)n3CC)cc2nc1CC`, the MIC90 in experiment [1] was found to be 4 µg/mL (≈ 8.39 µM); in [2] it was 2 µg/mL (≈ 4.2 µM); in experiment [3] it was 4 µg/mL (≈ 8.39 µM); in experiment [4], 2 µg/mL (≈ 4.2 µM).

In turn, `S=c1[nH]nc(NCNc2n[nH]c(=S)s2)s1` showed an EC50 in experiment [5] of 295 µg/mL (≈ 1060 µM).

As to `CCCNc1nc2ccccc2nc1C(=O)c1cnc(-c2ccc(Cl)cc2)o1`, the MIC in experiment [11] was found to be 62.5 µg/mL; in [12], 31.2 µg/mL (≈ 79.5 µM). For the same compound, the pEC50 in experiment [15] is 4.37.

Turning to `Cc1cc(O)n(C2=NNc3nc4ccc(S(=O)(=O)N5CCOCC5)cc4nc3S2)n1`, the MIC in experiment [13] amounted to 3.9 µg/mL; in [14] it was 15.6 µg/mL (≈ 34.9 µM); in [8], 1.92 µg/mL (≈ 4.29 µM).

Turning to `O=C(O)c1cccc(Sc2nc3ccccc3nc2Sc2cccc(C(=O)O)c2)c1`, in [9], the MIC is 2.5 µg/mL (≈ 5.75 µM).

Take `O=S(=O)(c1ccc2nc(Cl)c(Cl)nc2c1)N1CCOCC1`: the minimum inhibitory concentration (MIC) in experiment [8] is 1.92 µg/mL (≈ 5.51 µM).

As to `CNc1nc2ccccc2nc1C(=O)c1cnc(-c2ccccc2)o1`, the MIC stood at 62.5 µg/mL in experiment [11] and 31.2 µg/mL (≈ 94.6 µM) in experiment [12].

Regarding `O=C(c1cnc(-c2ccc(Cl)cc2)o1)c1nc2ccccc2nc1NCc1ccccc1`, the MIC in experiment [11] turned out to be 62.5 µg/mL; in experiment [12], 31.2 µg/mL (≈ 70.9 µM). For the same compound, the negative logarithm of the EC50 (pEC50) in experiment [15] is 5.17.

In the case of `COc1ccc(Sc2nc3ccccc3nc2Sc2ccc(OC)cc2)cc1`, the MIC stood at 2.5 µg/mL (≈ 6.15 µM) in experiment [9] and 5 µg/mL (≈ 12.3 µM) in experiment [10].

Turning to `O=C(O)c1ccc(Nc2nc3ccccc3nc2/C=C/c2ccc(O)cc2)cc1`, in [17], the pIC50 was 5.15.

In the case of `CO/C=C(/C(=O)OC)c1ccccc1Oc1cc(Oc2ccccc2C#N)ncn1` [AZOXYSTROBIN], the EC50 in [5] worked out at 26.2 µg/mL (≈ 64.9 µM).

For `Nc1ccc(Sc2nc3ccccc3nc2Cl)cc1`, the “inhibition zone (IZ)” value in experiment [6] stood at 15 mm. In addition, the MBC in experiment [7] was 2.5 µg/mL (≈ 8.69 µM).

Consider `O=C(OCc1ccc(Cl)cc1Cl)c1ccc(Oc2cnc3cc(Cl)ccc3n2)cc1`, for which, in [5], the EC50 was 35.2 µg/mL (≈ 76.5 µM).

Consider `COc1ccc(Sc2nc3ccccc3nc2Cl)cc1`, for which, in [6], the “inhibition zone (IZ)” value is reported as 13 mm. Also, the MBC in experiment [7] came out at 2.5 µg/mL (≈ 8.26 µM).

Consider `O=C(c1cnc(-c2ccc(Cl)cc2)o1)c1nc2ccccc2nc1N1CCOCC1`, for which the minimal inhibitory concentration (MIC) in experiment [11] is 62.5 µg/mL; in [12], 31.2 µg/mL (≈ 74.3 µM). This compound showed a pEC50 in experiment [15] of 4.35.
